Measurements published in patent US20240158446A1, “CYCLIC COMPOUND HAVING SELECTIVE INHIBITORY ACTION ON KRAS OVER HRAS AND NRAS” (CHUGAI SEIYAKU KABUSHIKI KAISHA, priority 2021, published 2024).

What was measured:
[1] = target: GDP-bound HRAS wild-type protein (Homo sapiens, UniProt P01112); assay: Binding to HRAS by surface plasmon resonance (SPR), Single Cycle Kinetics; details: for HRAS/KRAS (ratio of KD value with respect to GDP-bound HRAS wild-type protein to KD value with respect to KRAS): SPR KD ratio HRAS/KRAS, class symbols
GDP-bound HRAS wild-type protein, sequence (P01112 whole entry): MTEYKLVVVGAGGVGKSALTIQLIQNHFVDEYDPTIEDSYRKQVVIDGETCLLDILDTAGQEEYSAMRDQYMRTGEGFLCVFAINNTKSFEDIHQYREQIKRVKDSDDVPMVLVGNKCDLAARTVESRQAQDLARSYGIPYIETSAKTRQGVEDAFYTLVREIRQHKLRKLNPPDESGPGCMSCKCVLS

[2] = target: GDP-bound NRAS wild-type protein (Homo sapiens, UniProt P01111); assay: Binding to NRAS by surface plasmon resonance (SPR), Single Cycle Kinetics; details: for NRAS/KRAS (ratio of KD value with respect to GDP-bound NRAS wild-type protein to KD value with respect to KRAS): SPR KD ratio NRAS/KRAS, class symbols
GDP-bound NRAS wild-type protein, sequence (P01111 whole entry): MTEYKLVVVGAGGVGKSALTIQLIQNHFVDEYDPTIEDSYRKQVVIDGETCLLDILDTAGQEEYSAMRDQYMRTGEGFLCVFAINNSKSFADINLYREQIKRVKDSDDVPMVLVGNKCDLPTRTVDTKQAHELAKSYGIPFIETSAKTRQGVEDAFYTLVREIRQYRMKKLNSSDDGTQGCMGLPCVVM

[3] = SPR, GDP-bound HRAS wild-type protein vs GDP-bound KRAS wild-type protein
[4] = SPR, GDP-bound NRAS wild-type protein vs GDP-bound KRAS wild-type protein

| SMILES | HRAS/KRAS (ratio of KD value for HRAS to KD value for KRAS) [1, 3] | NRAS/KRAS (ratio of KD value for NRAS to KD value for KRAS) [2, 4] | further results |
| --- | --- | --- | --- |
| CCC[C@H]1C(=O)N[C@@H]([C@@H](C)CC)C(=O)N(C)CC(=O)N(C)[C@H]2C/C=C\CCN(C2=O)[C@@H](Cc2ccc(C(F)(F)F)cc2)C(=O)N(C)CC(=O)N[C@@H](CCc2cc(F)c(CC)c(OC)c2)C(=O)N2C[C@H](OCC)C[C@H]2C(=O)NC2(CC(C)(C)C2)C(=O)N(C)[C@@H](C2CCCC2)C(=O)N(C)[C@H](C(=O)N(C)C)CC(=O)N1C [PP2862] | – | – | HRAS/KRAS (ratio of KD value with respect to GDP-bound HRAS wild-type protein to KD value with respect to KRAS) [1]: B (a compound having 3 or more and less than 10 is denoted as B); NRAS/KRAS (ratio of KD value with respect to GDP-bound NRAS wild-type protein to KD value with respect to KRAS) [2]: A (a compound having 10 or more and less than 20 is denoted as A) |
| CCO[C@@H]1C[C@H]2C(=O)NC3(CCC3)C(=O)N(C)[C@@H](C3CCCC3)C(=O)N(C)[C@H](C(=O)N3CCOCC3)CC(=O)N(C)[C@@H](CC(C)C)C(=O)N[C@@H]([C@H](C)CC)C(=O)N(C)CC(=O)N(C)[C@H]3CCCCCN(C3=O)[C@@H](Cc3ccc(C(F)(F)F)cc3)C(=O)N(C)CC(=O)N[C@@H](CCc3cc(F)c(C(F)(F)F)c(F)c3)C(=O)N2C1 [PP0815] | B (a compound having 3 or more and less than 10 is denoted as B) | B (a compound having 3 or more and less than 10 is denoted as B) | – |
| CCC[C@H]1C(=O)N[C@@H]([C@@H](C)CC)C(=O)N(C)CC(=O)N(C)[C@H]2C/C=C\CCN(C2=O)[C@@H](Cc2ccc(C)cc2)C(=O)N(C)CC(=O)N[C@@H](CCc2ccc(C(F)(F)F)c(Cl)c2)C(=O)N2C[C@H](C)C[C@H]2C(=O)NC2(CC(C)(C)C2)C(=O)N(C)[C@@H](C2CCCC2)C(=O)N(C)[C@H](C(=O)N(C)C)CC(=O)N1C [PP2210] | B (a compound having 3 or more and less than 10 is denoted as B) | A (a compound having 10 or more and less than 20 is denoted as A) | – |
| CCO[C@@H]1C[C@H]2C(=O)NC3(CCC3)C(=O)N(C)[C@@H](C3CCCC3)C(=O)N(C)[C@H](C(=O)N(C)C)CC(=O)N(C)[C@@H](CC(C)C)C(=O)N[C@@H]([C@@H](C)CC)C(=O)N(C)CC(=O)N(C)[C@H]3CCCCCN(C3=O)[C@@H](Cc3ccc(C(F)(F)F)cc3)C(=O)N(C)CC(=O)N[C@@H](CCc3cc(F)c(C(F)(F)F)c(F)c3)C(=O)N2C1 [PP0469] | – | – | HRAS/KRAS (ratio of KD value with respect to HRAS to KD value with respect to KRAS) [1, 3]: B (a compound having 3 or more and less than 10 is denoted as B); NRAS/KRAS (ratio of KD value with respect to NRAS to KD value with respect to KRAS) [2, 4]: B (a compound having 3 or more and less than 10 is denoted as B) |
| CC[C@H](C)[C@@H]1NC(=O)[C@H](CC(C)C)N(C)C(=O)C[C@@H](C(=O)N(C)C)N(C)C(=O)[C@H](C2CCCC2)N(C)C(=O)C2(CCCC2)NC(=O)[C@@H]2C[C@@H](C)CN2C(=O)[C@H](CCc2cc(F)c(C(F)(F)F)c(F)c2)NC(=O)CN(C)C(=O)[C@H](Cc2ccc(C)cc2)N2CC/C=C\C[C@@H](C2=O)N(C)C(=O)CN(C)C1=O [PP2189] | A (a compound having 10 or more and less than 20 is denoted as A) | A (a compound having 10 or more and less than 20 is denoted as A) | – |
| CCO[C@@H]1C[C@H]2C(=O)NC3(CC(C)(C)C3)C(=O)N(C)[C@@H](C(CC)CC)C(=O)N(C)[C@H](C(=O)N(C)C)CC(=O)N(C)[C@@H](CC3CC3)C(=O)N[C@@H]([C@@H](C)CC)C(=O)N(C)CC(=O)N(C)[C@H]3C/C=C\CCN(C3=O)[C@@H](Cc3ccc(C)cc3)C(=O)N(C)CC(=O)N[C@@H](CCc3ccc(Cl)c(Cl)c3)C(=O)N2C1 [PP2182] | A (a compound having 10 or more and less than 20 is denoted as A) | AA (a compound having 20 or more is denoted as AA) | – |
| CCC[C@H]1C(=O)N[C@@H]([C@@H](C)CC)C(=O)N(C2CC2)CC(=O)N(C)[C@H]2C/C=C\CCN(C2=O)[C@@H](Cc2ccc(C)cc2)C(=O)N(C)CC(=O)N[C@@H](CCc2cc(C)c(C(F)F)c(C)c2)C(=O)N2C[C@H](OCC)C[C@H]2C(=O)NC2(CC(C)(C)C2)C(=O)N(C)[C@@H](C2CCCC2)C(=O)N(C)[C@H](C(=O)N(C)C)CC(=O)N1C [PP2873] | – | – | HRAS/KRAS (ratio of KD value with respect to GDP-bound HRAS wild-type protein to KD value with respect to KRAS) [1]: A (a compound having 10 or more and less than 20 is denoted as A); NRAS/KRAS (ratio of KD value with respect to GDP-bound NRAS wild-type protein to KD value with respect to KRAS) [2]: A (a compound having 10 or more and less than 20 is denoted as A) |
| CCC[C@H]1C(=O)N[C@@H](C2CCOCC2)C(=O)N(C)CC(=O)N(C)[C@H]2C/C=C\CCN(C2=O)[C@@H](Cc2ccc(C)cc2)C(=O)N(C)CC(=O)N[C@@H](CCc2ccc(C(F)(F)F)c(Cl)c2)C(=O)N2C[C@H](OCC)C[C@H]2C(=O)NC2(CC(C)(C)C2)C(=O)N(C)[C@@H](CC(C)(C)C)C(=O)N(C)[C@H](C(=O)N(C)C)CC(=O)N1C [PP3026] | A (a compound having 10 or more and less than 20 is denoted as A) | A (a compound having 10 or more and less than 20 is denoted as A) | – |
| CCC[C@H]1C(=O)N[C@@H]([C@@H](C)CC)C(=O)N(C2CC2)CC(=O)N(C)[C@H]2C/C=C\CCN(C2=O)[C@@H](Cc2ccc(C)cc2)C(=O)N(C)CC(=O)N[C@@H](CCc2ccc(C(F)(F)F)c(C3CC3)c2)C(=O)N2C[C@H](OCC)C[C@H]2C(=O)NC2(CC(C)(C)C2)C(=O)N(C)[C@@H](C2CCCC2)C(=O)N(C)[C@H](C(=O)N(C)C)CC(=O)N1C [PP2881] | – | – | HRAS/KRAS (ratio of KD value with respect to GDP-bound HRAS wild-type protein to KD value with respect to KRAS) [1]: A (a compound having 10 or more and less than 20 is denoted as A); NRAS/KRAS (ratio of KD value with respect to GDP-bound NRAS wild-type protein to KD value with respect to KRAS) [2]: A (a compound having 10 or more and less than 20 is denoted as A) |
| C#CC[C@H]1C(=O)N[C@@H]([C@@H](C)CC)C(=O)N(C)CC(=O)N(C)[C@H]2C/C=C\CCN(C2=O)[C@@H](Cc2ccc(C(F)(F)F)cc2)C(=O)N(C)CC(=O)N[C@@H](CCc2ccc(C(F)(F)F)c(OC)c2)C(=O)N2C[C@@H](C)C[C@H]2C(=O)NC2(CC(C)(C)C2)C(=O)N(C)[C@@H](C2CCCC2)C(=O)N(C)[C@H](C(=O)N(C)CCC)CC(=O)N1C [PP2057] | A (a compound having 10 or more and less than 20 is denoted as A) | A (a compound having 10 or more and less than 20 is denoted as A) | – |
| CCO[C@@H]1C[C@H]2C(=O)NC3(CCC3)C(=O)N(C)[C@@H](C3CCCC3)C(=O)N(C)[C@H](C(=O)N(C)C)CC(=O)N(C)[C@@H](CC)C(=O)N[C@@H]([C@@H](C)CC)C(=O)N(C)CC(=O)N(C)[C@H]3CC(C)=C(C)CN(C3=O)[C@@H](Cc3ccc(C(F)(F)F)cc3)C(=O)N(C)CC(=O)N[C@@H](CCc3cc(F)c(C(F)(F)F)c(F)c3)C(=O)N2C1 [PP1048] | C (A compound having a KD ratio of 0.1 or more and less than 3 is denoted as C) | C (A compound having a KD ratio of 0.1 or more and less than 3 is denoted as C) | – |
| CCC[C@H]1C(=O)N[C@@H]([C@@H](C)CC)C(=O)N(C2CC2)CC(=O)N(C)[C@H]2C/C=C\CCN(C2=O)[C@@H](CC2CCCCC2)C(=O)N(C)CC(=O)N[C@@H](CCc2ccc(C(F)(F)F)c(OC)c2)C(=O)N2C[C@H](OCC)C[C@H]2C(=O)N(C)C2(CCC2)C(=O)N(C)[C@@H](C2CCCC2)C(=O)N(C)[C@H](C(=O)N(C)C)CC(=O)N1C [PP2340] | B (a compound having 3 or more and less than 10 is denoted as B) | B (a compound having 3 or more and less than 10 is denoted as B) | – |
| CCOC[C@H]1C(=O)N[C@@H]([C@@H](C)CC)C(=O)N(C2CC2)CC(=O)N(C)[C@H]2C/C=C\CCN(C2=O)[C@@H](CC2CCCCC2)C(=O)N(C)CC(=O)N[C@@H](CCc2ccc(C(F)(F)F)c(OC)c2)C(=O)N2C[C@H](OCC)C[C@H]2C(=O)N(C)C2(CCC2)C(=O)N(C)[C@@H](C2CCCC2)C(=O)N(C)[C@H](C(=O)N(C)C)CC(=O)N1C [PP2342] | A (a compound having 10 or more and less than 20 is denoted as A) | A (a compound having 10 or more and less than 20 is denoted as A) | – |
| CC[C@@H]1C[C@H]2C(=O)NC3(CCCC3)C(=O)N(C)[C@@H](C3CCCC3)C(=O)N(C)[C@H](C(=O)N(C)C)CC(=O)N(C)[C@@H](CC(C)C)C(=O)N[C@@H]([C@@H](C)CC)C(=O)N(C)CC(=O)N(C)[C@H]3C/C=C\CCN(C3=O)[C@@H](Cc3ccc(C)cc3)C(=O)N(C)CC(=O)N[C@@H](CCc3cc(F)c(C(F)(F)F)c(F)c3)C(=O)N2C1 [PP2191] | B (a compound having 3 or more and less than 10 is denoted as B) | A (a compound having 10 or more and less than 20 is denoted as A) | – |
| CCO[C@@H]1C[C@H]2C(=O)NC3(CC(C)(C)C3)C(=O)N(C)[C@@H](C3CCCC3)C(=O)N(C)[C@H](C(=O)N(C)C)CC(=O)N(C)[C@@H](CC(C)C)C(=O)N[C@@H]([C@@H](C)CC)C(=O)N(C)CC(=O)N(C)[C@H]3C/C=C\CCN(C3=O)[C@@H](Cc3ccc(C(C)=O)cc3)C(=O)N(C)CC(=O)N[C@@H](CCc3ccc(C(F)(F)F)c(OC)c3)C(=O)N2C1 [PP2694] | – | – | HRAS/KRAS (ratio of KD value with respect to GDP-bound HRAS wild-type protein to KD value with respect to KRAS) [1]: B (a compound having 3 or more and less than 10 is denoted as B); NRAS/KRAS (ratio of KD value with respect to GDP-bound NRAS wild-type protein to KD value with respect to KRAS) [2]: A (a compound having 10 or more and less than 20 is denoted as A) |
| CCO[C@@H]1C[C@H]2C(=O)NC3(CC(C)(C)C3)C(=O)N(C)[C@@H](C3CCCC3)C(=O)N(C)[C@H](C(=O)N(C)C)CC(=O)N(C)[C@H]3CCCCC/C=C/c4ccc(cc4)C[C@@H](C(=O)N(C)CC(=O)N[C@@H](CCc4ccc(Cl)c(Cl)c4)C(=O)N2C1)N1CC/C=C\C[C@@H](C1=O)N(C)C(=O)CN(C)C(=O)[C@H]([C@@H](C)CC)NC3=O [PP3057] | B (a compound having 3 or more and less than 10 is denoted as B) | A (a compound having 10 or more and less than 20 is denoted as A) | – |
